The record followed here is patent US20230363383A1, “COMBINATIONS OF CHLOROACETANILIDE HERBICIDES WITH SAFENERS” (UPL DO BRASIL INDUSTRIA E COMERCIO DE INSUMOS AGROPECUARIOS …, priority 2020, published 2023).

Structures are written as SMILES. Where two headings read alike, the source gives them in different places.

What all share (format): in vivo
For data set [1], the system named is wheat crop. As to conditions: spray to soil; for % Phytotoxicity 7 DAA: 7 days after administration; for % Phytotoxicity 7 DAA / % Phytotoxicity 14 DAA / % Phytotoxicity 21 DAA / % Phytotoxicity 28 DAA / % Phytotoxicity 35 DAA: average of 4 replications; for % Phytotoxicity 14 DAA: 14 days after administration; for % Phytotoxicity 21 DAA: 21 days after administration; for % Phytotoxicity 28 DAA: 28 days after administration; for % Phytotoxicity 35 DAA: 35 days after administration; for Plants Standing: untreated check 8.0 (Table 5) / 8.3 (Table 6). As to the method: (§1) Experiments were carried out to evaluate the phytotoxicity, effect on plant height and effect on number of plants standing after treatments with combinations of one or more Chloroacetanilide herbicides with one or more safeners.
(§2) Application method was spray and applications were made to soil.
as §2

Data set [2] relates to Lolium multiflorum. Briefly: % weed control of Lolium multiflorum, Propisochlor alone or with safener sprayed to soil. Also on record: concentration or dose not given beside the values. Conditions: spray to soil, average of 4 replications; for % Weed Control 7 DAA: 7 days after administration; for % Weed Control 14 DAA: 14 days after administration; for % Weed Control 21 DAA: 21 days after administration; for % Weed Control 28 DAA: 28 days after administration; for % Weed Control 35 DAA: 35 days after administration. As to the method: as §1
Below table gives summary of the formulation details and application details of Propisochlor and Mefenpyr-diethyl, Isoxadifen-ethyl and Cloquintocet-mexyl that were used in combination with Propisochlor for treatments. Application method was spray and applications were made to soil.
Below table gives summary of the formulation details and application details of Propisochlor and Dichlormid, Fenclorim, Benoxacor, Flurazole and Fluxofenim that were used in combination with Propisochlor for treatments. Application method was spray and applications were made to soil.
Below table gives summary of % weed control shown by untreated check, Propisochlor alone and combination of Propisochlor with Mefenpyr-diethyl, Isoxadifen-ethyl and Cloquintocet-mexyl at different application rates. % weed control was checked for weed Lolium multiflorum.
Below table gives summary of % weed control shown by untreated check, Propisochlor alone and combination of Propisochlor with Dichlormid, Fenclorim, Benoxacor, Flurazole and Fluxofenim at different application rates. % weed control was checked for weed Lolium multiflorum.

For data set [3], the system named is wheat crop. As to conditions: seed treatment, average of 4 replications.
Description: (§3) Mode of application for herbicides was spray and they were applied to soil after sowing of untreated seeds or seeds treated with safeners.
as §3

For `CCc1cccc(C)c1N(COC(C)C)C(=O)CCl` [Treatment 2a], in data set [1], the “% Phytotoxicity 7 DAA” value is listed as 98.0%, the “% Phytotoxicity 14 DAA” value was found to be 99.0%, the “% Phytotoxicity 21 DAA” value is listed as 99.5% and the “% Phytotoxicity 28 DAA” value stood at 99.5%. In addition, in data set [1], the “% Phytotoxicity 35 DAA” value was 99.0% and the “Plants Standing” value is on record as 0.5. In data set [2], the “% Weed Control 7 DAA” value amounted to 100%, the “% Weed Control 14 DAA” value was found to be 100%, the “% Weed Control 21 DAA” value was 100% and the “% Weed Control 28 DAA” value is listed as 100%. Besides, the “% Weed Control 35 DAA” value in data set [2] was determined as 100%.
As to `N#Cc1nn(-c2c(Cl)cc(C(F)(F)F)cc2Cl)c(N)c1[S+]([O-])C(F)(F)F` (stereo not shown) [Treatment 9b], in data set [3] (Table 12, 15 DAA), the “Plant height 15 DAA” value was determined as 23.3 and the “Standing Plants 15 DAA” value worked out at 10.8. Moreover, in data set [3] (Table 12, 29 DAA), the “Plant height 29 DAA” value was determined as 34.3 and the “Standing Plants 29 DAA” value is on record as 10.8. Also, the “% Phytotoxicity 8 DAA” value in data set [3] (wheat crop, Propisochlor sprayed to soil after sowing, 8 DAA) is recorded as 0%. In data set [3] (wheat crop, Propisochlor sprayed to soil after sowing, 15 DAA), the “% Phytotoxicity 15 DAA” value is given as 0%. Besides, the “% Phytotoxicity 22 DAA” value in data set [3] (wheat crop, Propisochlor sprayed to soil after sowing, 22 DAA) is on record as 0%. Also, in data set [3] (wheat crop, Propisochlor sprayed to soil after sowing, 29 DAA), the “% Phytotoxicity 29 DAA” value turned out to be 0%. For the same compound, in data set [3] (wheat crop, Propisochlor sprayed to soil after sowing, 36 DAA), the “% Phytotoxicity 36 DAA” value stood at 0%.
As to `CCc1cccc(C)c1N(COC(C)C)C(=O)CCl` [Treatment 10a], in data set [1], the “% Phytotoxicity 7 DAA” value amounted to 99.5%, the “% Phytotoxicity 14 DAA” value was 100%, the “% Phytotoxicity 21 DAA” value came to 100% and the “% Phytotoxicity 28 DAA” value stood at 100%. In data set [1], the “% Phytotoxicity 35 DAA” value was determined as 100% and the “Plants Standing” value is 0.0. Further, in data set [2], the “% Weed Control 7 DAA” value is reported as 100.0%, the “% Weed Control 14 DAA” value is recorded as 100.0%, the “% Weed Control 21 DAA” value was found to be 100.0% and the “% Weed Control 28 DAA” value came to 99.3%. The “% Weed Control 35 DAA” value in data set [2] stood at 99.0%.
As to `N#Cc1nn(-c2c(Cl)cc(C(F)(F)F)cc2Cl)c(N)c1[S+]([O-])C(F)(F)F` (stereo not shown) [Treatment 1b], in data set [3] (Table 11, wheat crop, 15 DAA), the “Plant height 15 DAA” value is reported as 10.8 and the “Standing Plants 15 DAA” value stood at 22.5. In data set [3] (Table 11, wheat crop, 29 DAA), the “Plant height 29 DAA” value is reported as 10.8 and the “Standing Plants 29 DAA” value came to 33.8. In addition, the “% Phytotoxicity 7 DAA” value in data set [3] (wheat crop, Propisochlor sprayed to soil after sowing, 7 DAA) came out at 0%. In addition, the “% Phytotoxicity 14 DAA” value in data set [3] (wheat crop, Propisochlor sprayed to soil after sowing, 14 DAA) is given as 0%. For the same compound, in data set [3] (wheat crop, Propisochlor sprayed to soil after sowing, 21 DAA), the “% Phytotoxicity 21 DAA” value turned out to be 0%. For the same compound, in data set [3] (wheat crop, Propisochlor sprayed to soil after sowing, 28 DAA), the “% Phytotoxicity 28 DAA” value amounted to 0%. Moreover, the “% Phytotoxicity 35 DAA” value in data set [3] (wheat crop, Propisochlor sprayed to soil after sowing, 35 DAA) turned out to be 0%.
